Test system: CTLA-4/CD80 interaction
Test: In vitro CTLA-4/CD80 HTRF binding assay with triple-mutant anti-CTLA-4 scFv (Rip3)
Settings: no cathepsin B; up to 75 μM JK43 and prodrug; FIG. 2
Protocol: In addition to the above, an in vitro CTLA-4/CD80 HTRF (homogeneous time resolved fluorescence) binding assay was performed with cathepsin B activatable prodrug. Specifically, the HTRF assay was used to assess the ability of antibodies to block the CTLA-4/CD80 interaction using a CTLA-4/CD80 binding assay kit (cat. no. 64CTLA80PEG; Cisbio (Codolet, France)). […]
To the above, 4 μL of Tag1-CD80 protein and 4 μL of Tag2-CTLA-4 were added into a black 384-well low volume plate and then incubated at 37° C. for 10 minutes. […] These were used to measure the fluorescence energy transfer between donor Anti-Tag1 Eu Cryptate and acceptor Anti-Tag d2 reagent. Data was collected at different time points (1, 3, 8, 12 and 24 hours) and the FRET signals were measured on a envision multimode plate reader (PerkinElmer, Shelton, CT) using 340 nm as the excitation wavelength, a 620 nm filter for the Eu donor fluorescence detection, and a 665 nm filter for the acceptor fluorescence detection. HTRF signals were calculated as a ratio as follows: (intensity of 665 nm)/(intensity of 620 nm)×10,000, which was plotted against the WT/triple mutant antibody (5GSWT and 5GS 3′M (Rip3)) concentration to derive the EC50.

rescue of the activity of the triple mutant scFv variant (Rip3): rescues the activity
SMILES: c1ccc(COc2ccc3cn[nH]c3c2)cc1 [Stitch3, 6-phenylmethoxy-1H-indazole]

Source: patent publication US20240156974A1, “COMPOSITIONS AND METHODS FOR MODULATION OF ANTIBODY ACTIVITY” (Institute For Cancer Research D/B/A Tha Research Institute …, priority 2021, published 2024)
